Source: US20140005119A1, “COMPOSITIONS AND METHODS FOR INHIBITING THE ACTIVITY OF P110a MUTANT PROTEINS” (Case Western Reserve University, priority 2012, published 2014)

Key:
[1] = tested on: AKT and Foxo1 phosphorylation; experiment: Immunoblot of AKT signaling in peptide-treated xenograft tumors; assay type: in vivo, mice
Description: FIG. 6 is an immunoblot illustrating the stapled mutant peptide inhibits AKT signaling in xenograft tumors.
Five-week-old male athymic nude mice were injected with 5 million cells subcutaneously and bilaterally. When tumor sizes reached 100-150 mm^3, 10 mice with similar sized tumors on both flanks were selected. The left flank tumors were injected with stapled WT p110α peptide, whereas the right flank tumors were injected with stapled p110α E545K mutant peptide. Each tumor was injected with 250 μg of peptide daily for 14 days. Control xenograft tumors were injected with an equal volume of water. The tumor sizes were measured every 2 days.

p110α-p85 interaction = target: T1, p110α-p85 interaction (Homo sapiens, UniProt P42336, E545K); experiment: Peptide competition assay in cell lysates, p110α-p85 interaction; assay type: binding
T1 construct: tag the endogenous WT or mutant p110α with 3×FLAG at their C termini in DLD1 cells; endogenous in cells; host or cells: DLD1 p110α E545K 3×FLAG knock-in cells
T1 sequence (P42336 whole entry E545K): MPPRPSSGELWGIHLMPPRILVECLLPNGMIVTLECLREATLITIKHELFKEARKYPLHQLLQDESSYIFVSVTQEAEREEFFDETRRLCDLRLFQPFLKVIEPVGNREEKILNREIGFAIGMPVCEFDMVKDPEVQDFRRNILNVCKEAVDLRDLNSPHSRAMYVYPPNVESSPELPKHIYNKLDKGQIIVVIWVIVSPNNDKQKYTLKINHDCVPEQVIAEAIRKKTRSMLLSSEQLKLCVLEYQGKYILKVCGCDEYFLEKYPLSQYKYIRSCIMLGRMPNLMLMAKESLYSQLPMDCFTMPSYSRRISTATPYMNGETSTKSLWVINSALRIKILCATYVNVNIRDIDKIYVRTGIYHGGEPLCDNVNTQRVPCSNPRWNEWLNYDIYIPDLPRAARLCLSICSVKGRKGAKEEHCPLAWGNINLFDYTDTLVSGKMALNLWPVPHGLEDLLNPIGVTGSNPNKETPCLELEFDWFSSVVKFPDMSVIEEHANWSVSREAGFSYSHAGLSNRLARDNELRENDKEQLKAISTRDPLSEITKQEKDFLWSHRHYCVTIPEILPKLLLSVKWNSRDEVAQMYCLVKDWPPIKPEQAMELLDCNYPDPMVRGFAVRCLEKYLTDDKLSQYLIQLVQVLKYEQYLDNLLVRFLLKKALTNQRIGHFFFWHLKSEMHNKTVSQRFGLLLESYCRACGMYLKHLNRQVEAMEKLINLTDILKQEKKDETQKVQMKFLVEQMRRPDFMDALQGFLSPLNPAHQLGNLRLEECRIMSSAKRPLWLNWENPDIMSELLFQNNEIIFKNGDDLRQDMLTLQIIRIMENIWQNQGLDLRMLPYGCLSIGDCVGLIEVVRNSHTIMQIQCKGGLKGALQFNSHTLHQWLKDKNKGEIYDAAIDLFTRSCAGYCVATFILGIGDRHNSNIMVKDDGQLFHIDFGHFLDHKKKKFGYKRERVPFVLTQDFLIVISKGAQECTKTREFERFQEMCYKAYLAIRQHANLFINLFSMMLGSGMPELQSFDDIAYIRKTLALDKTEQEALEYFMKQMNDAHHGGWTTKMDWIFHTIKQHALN
T1 sequence (P27986 whole entry partner): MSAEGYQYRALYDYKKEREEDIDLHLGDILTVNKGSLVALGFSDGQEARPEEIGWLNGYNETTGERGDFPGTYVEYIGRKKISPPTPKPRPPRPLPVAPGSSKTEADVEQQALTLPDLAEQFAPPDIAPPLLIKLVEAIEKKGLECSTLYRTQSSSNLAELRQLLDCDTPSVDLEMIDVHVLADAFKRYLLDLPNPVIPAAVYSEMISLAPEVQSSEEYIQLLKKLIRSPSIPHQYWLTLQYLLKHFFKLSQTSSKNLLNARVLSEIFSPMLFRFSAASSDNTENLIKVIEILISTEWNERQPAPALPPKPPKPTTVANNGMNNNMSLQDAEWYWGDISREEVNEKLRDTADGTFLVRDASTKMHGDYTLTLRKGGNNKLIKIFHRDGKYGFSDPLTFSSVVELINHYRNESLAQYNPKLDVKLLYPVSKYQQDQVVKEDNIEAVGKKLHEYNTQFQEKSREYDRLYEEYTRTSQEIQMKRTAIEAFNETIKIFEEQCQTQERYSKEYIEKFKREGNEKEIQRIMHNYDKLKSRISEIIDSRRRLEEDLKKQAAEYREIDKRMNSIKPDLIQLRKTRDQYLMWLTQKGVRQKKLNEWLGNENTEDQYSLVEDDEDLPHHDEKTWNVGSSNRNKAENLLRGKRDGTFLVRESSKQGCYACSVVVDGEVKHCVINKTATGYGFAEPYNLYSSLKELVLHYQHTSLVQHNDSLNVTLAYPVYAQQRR
Description: FIGS. 3(A-M) illustrate: (A, B) Mapping peptides (P3, SEQ ID NO: 1; P4 SEQ ID NO: 2; P5, SEQ ID NO: 3; P6, SEQ ID NO: 4) derived from mutant p110α that inhibit interaction between IRS1 and p110α E545K. The indicated peptides were added into cell lysates made from the p110α E545K 3×FLAG KI cells. Cell lysates were immunoprecipitated with beads conjugated with anti-FLAG antibodies and then blotted with anti-IRS1 antibodies. (C) Immunoblots of cell lysates made from the p110α E545K 3×FLAG KI cells. Cell lysates were immunoprecipitated with beads conjugated with anti-FLAG antibodies and then blotted with the indicated antibodies. […] (J, K) Immunoblot and graph of purified recombinant p110α E545K mutant proteins mixed with the indicated components and quantified using an in vitro lipid kinase assay. […]
For Co-immunoprecipitation (Co-IP), cells were harvested, washed with PBS, and then lysed in IP buffer (50 mMTris [pH 7.4], 150 mMNaCl, 5 mMEDTA [pH 8.0], 0.5% NP40, 1 mM PMSF, complete Protease Inhibitor Cocktail tablet [Roche]; supplemented with phosphatase inhibitors [1 mM Na3VO4, 20 mM NaF, 0.1 mM b-glycerophosphate, 20 mM sodium pyrophosphate] when necessary). […] Lysates were then cleared by centrifugation (14,000 rpm, 10 min) and protein concentration in supernatants was determined with a BCA protein assay kit (Pierce, Rockford, Ill.). […]

[2] = target: T2, recombinant p110α E545K mutant protein (Homo sapiens, UniProt P42336, E545K); experiment: In vitro lipid kinase assay; assay type: biochemical; settings: either alone or in the presence of IRS1
T2 construct: 6×His; made in house; host or cells: Sf9 insect cells (baculovirus)
T2 sequence (P42336 whole entry E545K): as the sequence (P42336 whole entry E545K) above
T2 sequence (P27986 322-600 partner limits assumed): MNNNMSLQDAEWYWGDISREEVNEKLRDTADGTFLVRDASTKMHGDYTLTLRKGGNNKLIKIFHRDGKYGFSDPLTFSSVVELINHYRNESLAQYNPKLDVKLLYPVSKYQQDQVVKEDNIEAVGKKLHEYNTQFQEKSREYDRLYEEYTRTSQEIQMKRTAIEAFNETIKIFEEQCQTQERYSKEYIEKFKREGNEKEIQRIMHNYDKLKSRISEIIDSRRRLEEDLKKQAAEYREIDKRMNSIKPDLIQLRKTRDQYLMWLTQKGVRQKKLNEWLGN
Description: FIGS. 3(A-M) illustrate: (A, B) Mapping peptides (P3, SEQ ID NO: 1; P4 SEQ ID NO: 2; P5, SEQ ID NO: 3; P6, SEQ ID NO: 4) derived from mutant p110α that inhibit interaction between IRS1 and p110α E545K. The indicated peptides were added into cell lysates made from the p110α E545K 3×FLAG KI cells. Cell lysates were immunoprecipitated with beads conjugated with anti-FLAG antibodies and then blotted with anti-IRS1 antibodies. (C) Immunoblots of cell lysates made from the p110α E545K 3×FLAG KI cells. Cell lysates were immunoprecipitated with beads conjugated with anti-FLAG antibodies and then blotted with the indicated antibodies. (D) Immunoblots of cell lysate of Myc-tagged IRS1 plasmid, which co-transfected an ABD domain deletion construct of the FLAG-tagged p110α E545K mutant (ΔABD), incubated with the indicated amount of stapled p110α mutant peptides, and then immunoprecipitated with anti-FLAG antibodies and blotted with the indicated antibodies. (J, K) Immunoblot and graph of purified recombinant p110α E545K mutant proteins mixed with the indicated components and quantified using an in vitro lipid kinase assay. (L, M) Immunoblots of the indicated cell lines serum-starved, stimulated with 1 μg/ml insulin for 30 min, and then treated with or without the indicated peptides. Cell lysates were blotted with the indicated antibodies. All error bars show mean±SEM. *p<0.05, **p<0.001, t test. […]

[3] = peptide-treated xenograft tumors

effect on p110α-p85 interaction (p110α-p85 interaction): no effects | kinase activity of recombinant p110α [2]: no effect
Substance: H2N-SEITKQEK-D^549-FLW-S^553-HRHYC-COOH [stapled mutant peptide]
AKT signaling in xenograft tumors ([1]; FIG. 6 legend): inhibits | AKT and Foxo1 phosphorylation in xenograft tumors [1, 3]: reduced | AKT phosphorylation at T308 and S473 residues in xenograft tumors [1, 3]: only decreased AKT phosphorylation at the S473 residue
